pKd: −log10 of the molar value. Starred links: 1 amine or outer side, 2 acyl side, 3 side chain; linkers in the order of their positions; H or OH if unused. Positions of bridges follow the written chain, without caps; N, C: chain ends. Non-standard residues stand in square brackets, D forms with d. Residues, ends and D or L forms follow the SMILES beside them. Groups on a side chain read outwards from the residue. *: point of attachment. Ala(piperidin-4-yl) = O=C([C@H](CC1CCN([*:3])CC1)N[*:1])[*:2]; Phe(3-CH2NH2) = O=C([C@H](Cc1cccc(CN[*:3])c1)N[*:1])[*:2]; DOTA = O=C(O)CN1CCN(CC(=O)O)CCN(CC(=O)*)CCN(CC(=O)O)CC1; Trp(1-CH2COOH) = N[C@@H](Cc1cn(CC(=O)O)c2ccccc12)C(=O)O; Trp(5-F) = N[C@@H](Cc1c[nH]c2ccc(F)cc12)C(=O)O; X1 = C[C@@H](c1ccccc1)[C@H](N[*:1])C(=O)[*:2]; γGlu = O=C(O)[C@H](CCC(=O)[*:2])N[*:1]; 1Nal = N[C@@H](Cc1cccc2ccccc12)C(=O)O; Ala(4-THP) = N[C@@H](CC1CCOCC1)C(=O)O; Val(3-OH) = CC(C)(O)[C@H](N)C(=O)O; PEG4 = NCCOCCOCCOCCOCCC(=O)O; Tle = CC(C)(C)[C@H](N)C(=O)O; hLeu = CC(C)CC[C@H](N)C(=O)O; Nle = CCCC[C@H](N)C(=O)O; Dab = NCC[C@H](N)C(=O)O; AEA = NCCOCC(=O)O; Sar = CNCC(=O)O
These compounds were tested against T1, human 4lg B7-H3 (Homo sapiens, UniProt Q5ZPR3) (assay: Affinity determination by surface plasmon resonance (SPR) to 4Ig B7-H3). Conditions: SPR KD—25° C., 4Ig B7-H3; 25° C. flow cell temperature.
T1 sequence (Q5ZPR3 29-534): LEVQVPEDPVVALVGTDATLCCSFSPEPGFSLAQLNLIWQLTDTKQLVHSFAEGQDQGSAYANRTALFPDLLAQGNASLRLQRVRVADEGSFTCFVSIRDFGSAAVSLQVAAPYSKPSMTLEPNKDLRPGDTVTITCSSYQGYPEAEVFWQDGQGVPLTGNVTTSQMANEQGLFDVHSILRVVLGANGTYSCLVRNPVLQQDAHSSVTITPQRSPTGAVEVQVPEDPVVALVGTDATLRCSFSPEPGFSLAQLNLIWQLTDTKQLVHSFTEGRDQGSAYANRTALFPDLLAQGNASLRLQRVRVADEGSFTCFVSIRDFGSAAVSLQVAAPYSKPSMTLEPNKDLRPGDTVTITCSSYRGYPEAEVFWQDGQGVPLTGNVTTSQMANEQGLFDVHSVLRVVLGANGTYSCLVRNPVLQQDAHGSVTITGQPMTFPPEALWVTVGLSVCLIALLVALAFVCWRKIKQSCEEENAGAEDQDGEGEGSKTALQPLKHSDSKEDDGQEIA

pKd | Structure (SMILES)
8.00 to 9.00 | CC(=O)N[C@@H](CCC(C)C)C(=O)N[C@@H](Cc1ccc(O)cc1)C(=O)N[C@H]1CSSC[C@@H](C(=O)N[C@@H](Cc2cccc3ccccc23)C(=O)N[C@@H](Cc2ccccc2)C(=O)N2CCC[C@H]2C(N)=O)NC(=O)[C@H](Cc2ccc(O)cc2)NC(=O)[C@H](C(C)C)NC(=O)[C@H](CC(=O)O)NC(=O)[C@H](Cc2cccc(CNC(=O)CC[C@H](NC(=O)CC[C@H](NC(=O)CC[C@H](NC(=O)CN3CCN(CC(=O)O)CCN(CC(=O)O)CCN(CC(=O)O)CC3)C(=O)O)C(=O)O)C(=O)O)c2)NC(=O)[C@H](CCCCN)NC(=O)CNC(=O)[C@H](C(C)(C)C)NC1=O [compound 258, Ac-hLeu-Y-C-Tbg-G-K-MAF(gE-gE-gE-DOTA)-D-V-Y-C-1Nal-F-Pro-CONH2] (Ac-[hLeu]YC[Tle]GK[Phe(3-CH2NH2)]([γGlu-γGlu-γGlu-DOTA])DVYC[1Nal]FP-NH2; disulfide 3-11)
7.00 to 8.00 | CCCC[C@H](NC(C)=O)C(=O)N[C@@H](Cc1ccc(O)cc1)C(=O)N[C@H]1CSSC[C@@H](C(=O)N[C@@H](Cc2c[nH]c3ccccc23)C(=O)N[C@@H](Cc2ccccc2)C(=O)N[C@@H](CCC(N)=O)C(=O)O)NC(=O)[C@H](Cc2ccc(O)cc2)NC(=O)[C@H](C(C)C)NC(=O)[C@H](CC(=O)O)NC(=O)[C@H](Cc2ccc(O)cc2)NC(=O)[C@H](CCCCN)NC(=O)CNC(=O)[C@H](C(C)C)NC1=O [compound 35, Ac-Nle-Y-C-V-G-K-Y-D-V-Y-C-W-F-gE-CONH2]
6.52 to 7.00 | CCCC[C@H](NC(C)=O)C(=O)N[C@@H](Cc1ccc(O)cc1)C(=O)N[C@H]1CSSC[C@@H](C(=O)N[C@@H](Cc2c[nH]c3ccccc23)C(=O)N[C@@H](Cc2ccccc2)C(=O)N[C@H](C(=O)N[C@H](CCCCNC(=O)CN2CCN(CC(=O)O)CCN(CC(=O)O)CCN(CC(=O)O)CC2)C(N)=O)[C@@H](C)O)NC(=O)[C@H](Cc2ccc(O)cc2)NC(=O)[C@H](C(C)C)NC(=O)[C@H](CO)NC(=O)[C@H](Cc2ccc(O)cc2)NC(=O)[C@H](CCCCN)NC(=O)CNC(=O)[C@H](C(C)C)NC1=O [compound 81, Ac-Nle-Y-C-V-G-K-Y-S-V-Y-C-W-F-Thr-dLys(DOTA)-CONH2] (Ac-[Nle]YCVGKYSVYCWFT[dK](DOTA)-NH2; disulfide 3-11)
7.00 to 8.00 | CCCC[C@H](NC(C)=O)C(=O)N[C@@H](Cc1ccc(O)cc1)C(=O)N[C@H]1CSSC[C@@H](C(=O)N[C@@H](Cc2c[nH]c3ccccc23)C(=O)N[C@@H](Cc2ccccc2)C(=O)N[C@@H](CCCCN)C(=O)N[C@H](CCCCNC(=O)CN2CCN(CC(=O)O)CCN(CC(=O)O)CCN(CC(=O)O)CC2)C(N)=O)NC(=O)[C@H](Cc2ccc(O)cc2)NC(=O)[C@H](C(C)C)NC(=O)[C@H](CC(=O)O)NC(=O)[C@H](Cc2ccc(O)cc2)NC(=O)[C@H](CCCCN)NC(=O)CNC(=O)[C@H](C(C)C)NC1=O [compound 86, Ac-Nle-Y-C-V-G-K-Y-D-V-Y-C-W-F-Lys-dLys(DOTA)-CONH2] (Ac-[Nle]YCVGKYDVYCWFK[dK](DOTA)-NH2; disulfide 3-11)
8.00 to 9.00 | CC(=O)N[C@@H](CCC(C)C)C(=O)N[C@@H](Cc1ccc(O)cc1)C(=O)N[C@H]1CSSC[C@@H](C(=O)N[C@@H](Cc2c[nH]c3ccc(F)cc23)C(=O)N[C@@H](Cc2ccccc2)C(=O)N[C@H](C(=O)N[C@H](CCCCNC(=O)CN2CCN(CC(=O)O)CCN(CC(=O)O)CCN(CC(=O)O)CC2)C(N)=O)[C@@H](C)O)NC(=O)[C@H](Cc2ccc(O)cc2)NC(=O)[C@H](C(C)C)NC(=O)[C@H](CC(=O)O)NC(=O)[C@H](Cc2ccc(O)cc2)NC(=O)[C@H](CCCCN)NC(=O)CN(C)C(=O)[C@H](C(C)(C)C)NC1=O [compound 78, Ac-hLeu-Y-C-Tbg-Sar-K-Y-D-V-Y-C-5FW-F-Thr-dLys(DOTA)-CONH2] (Ac-[hLeu]YC[Tle][Sar]KYDVYC[Trp(5-F)]FT[dK](DOTA)-NH2; disulfide 3-11)

Same assay, conditions: SPR KD—37° C., 4Ig B7-H3; 37° C. flow cell temperature

pKd | Structure (SMILES)
> 9.00 | CC(=O)N[C@@H](CCC(C)C)C(=O)N[C@@H](Cc1ccc(O)cc1)C(=O)N[C@H]1CSSC[C@@H](C(=O)N[C@@H](Cc2cccc3ccccc23)C(=O)N[C@@H](Cc2ccccc2)C(=O)N[C@H](C(=O)N[C@H](CCCCNC(=O)CN2CCN(CC(=O)O)CCN(CC(=O)O)CCN(CC(=O)O)CC2)C(=O)O)C(C)(C)O)NC(=O)[C@H](Cc2ccc(O)cc2)NC(=O)[C@H](C(C)C)NC(=O)[C@H](CC(=O)O)NC(=O)[C@H](CC2CCOCC2)NC(=O)[C@H](CCN)NC(=O)CNC(=O)[C@H](C(C)(C)C)NC1=O [compound 435, Ac-hLeu-Y-C-Tbg-G-Dab-ThpA-D-V-Y-C-1Nal-F-hydroxyVal-dLys(DOTA)-COOH] (Ac-[hLeu]YC[Tle]G[Dab][Ala(4-THP)]DVYC[1Nal]F[Val(3-OH)][dK](DOTA)-OH; disulfide 3-11)
> 9.00 | CC(=O)N[C@@H](CCC(C)C)C(=O)N[C@@H](Cc1ccc(O)cc1)C(=O)N[C@H]1CSSC[C@@H](C(=O)N[C@@H](Cc2cccc3ccccc23)C(=O)N[C@@H](Cc2ccccc2)C(=O)N[C@H](C(=O)N[C@H](C)C(=O)O)C(C)(C)O)NC(=O)[C@H](Cc2ccc(O)cc2)NC(=O)[C@H](C(C)C)NC(=O)[C@H](CC(=O)O)NC(=O)[C@H](CC2CCN(C(=O)CCOCCOCCOCCOCCNC(=O)CN3CCN(CC(=O)O)CCN(CC(=O)O)CCN(CC(=O)O)CC3)CC2)NC(=O)[C@H](CC2CCNCC2)NC(=O)CNC(=O)[C@H](C(C)(C)C)NC1=O [compound 453, Ac-hLeu-Y-C-Tbg-G-PipAla-Pip(PEG4-DOTA)Ala-D-V-Y-C-1Nal-F-hydroxyVal-dAla-COOH] (Ac-[hLeu]YC[Tle]G[Ala(piperidin-4-yl)][Ala(piperidin-4-yl)]([PEG4-DOTA])DVYC[1Nal]F[Val(3-OH)][dA]-OH; disulfide 3-11)
6.52 to 7.00 | CC(=O)N[C@@H](CCC(C)C)C(=O)N[C@@H](Cc1ccc(O)cc1)C(=O)N[C@H]1CSSC[C@@H](C(=O)N[C@@H](Cc2cn(CC(=O)O)c3ccccc23)C(=O)N[C@@H](Cc2ccccc2)C(=O)N[C@H](C(=O)N[C@H](CCCCNC(=O)CN2CCN(CC(=O)O)CCN(CC(=O)O)CCN(CC(=O)O)CC2)C(=O)O)C(C)(C)O)NC(=O)[C@H](Cc2ccc(O)cc2)NC(=O)[C@H](C(C)C)NC(=O)[C@H](CC(=O)O)NC(=O)[C@H](CC2CCOCC2)NC(=O)[C@H](CCCCN)NC(=O)CNC(=O)[C@H](C(C)(C)C)NC1=O [compound 396, Ac-hLeu-Y-C-Tbg-G-K-ThpA-D-V-Y-C-Trp(CH2COOH)-F-hydroxyVal-dLys(DOTA)-COOH] (Ac-[hLeu]YC[Tle]GK[Ala(4-THP)]DVYC[Trp(1-CH2COOH)]F[Val(3-OH)][dK](DOTA)-OH; disulfide 3-11)
> 9.00 | CC(=O)NCCOCCOCCOCCOCCC(=O)N1CCC(C[C@@H]2NC(=O)[C@H](CC3CCNCC3)NC(=O)CNC(=O)[C@H](C(C)(C)C)NC(=O)[C@@H](NC(=O)[C@H](Cc3ccc(O)cc3)NC(=O)[C@H](CCC(C)C)NC(C)=O)CSSC[C@@H](C(=O)N[C@@H](Cc3c[nH]c4ccc(F)cc34)C(=O)N[C@H](C(=O)N[C@H](C(=O)N[C@H](CCCCNC(=O)CN3CCN(CC(=O)O)CCN(CC(=O)O)CCN(CC(=O)O)CC3)C(=O)O)C(C)(C)O)[C@@H](C)c3ccccc3)NC(=O)[C@H](Cc3ccc(O)cc3)NC(=O)[C@H](C(C)C)NC(=O)[C@H](CC(=O)O)NC2=O)CC1 [compound 515, Ac-hLeu-Y-C-Tbg-G-PipAla-Pip(PEG4-Ac)Ala-D-V-Y-C-5FW-[(2S, 3S)beta-Me-Phe]-hydroxyVal-dLys(DOTA)-COOH] (Ac-[hLeu]YC[Tle]G[Ala(piperidin-4-yl)][Ala(piperidin-4-yl)]([PEG4-Ac])DVYC[Trp(5-F)][X1][Val(3-OH)][dK](DOTA)-OH; disulfide 3-11)
8.00 to 9.00 | CC(C)CC[C@H](NC(=O)COCCNC(=O)CC[C@H](NC(=O)CN1CCN(CC(=O)O)CCN(CC(=O)O)CCN(CC(=O)O)CC1)C(=O)O)C(=O)N[C@@H](Cc1ccc(O)cc1)C(=O)N[C@H]1CSSC[C@@H](C(=O)N[C@@H](Cc2c[nH]c3ccc(F)cc23)C(=O)N[C@@H](Cc2ccccc2)C(=O)N[C@H](C(N)=O)C(C)(C)O)NC(=O)[C@H](Cc2ccc(O)cc2)NC(=O)[C@H](C(C)C)NC(=O)[C@H](CC(=O)O)NC(=O)[C@H](CC2CCOCC2)NC(=O)[C@H](CCCCN)NC(=O)CNC(=O)[C@H](C(C)(C)C)NC1=O [compound 393, DOTA-gE-AEA-hLeu-Y-C-Tbg-G-K-ThpA-D-V-Y-C-5FW-F-hydroxyVal-CONH2] ({DOTA-γGlu-AEA}-[hLeu]YC[Tle]GK[Ala(4-THP)]DVYC[Trp(5-F)]F[Val(3-OH)]-NH2; disulfide 3-11)
> 9.00 | CC(=O)N[C@@H](CCC(C)C)C(=O)N[C@@H](Cc1ccc(O)cc1)C(=O)N[C@H]1CSSC[C@@H](C(=O)N[C@@H](Cc2c[nH]c3ccc(F)cc23)C(=O)N[C@@H](Cc2ccccc2)C(=O)N[C@H](C(=O)N[C@H](CCCCNC(=O)CN2CCN(CC(=O)O)CCN(CC(=O)O)CCN(CC(=O)O)CC2)C(=O)O)C(C)(C)O)NC(=O)[C@H](Cc2ccc(O)cc2)NC(=O)[C@H](C(C)C)NC(=O)[C@H](CC(=O)O)NC(=O)[C@H](CC2CCOCC2)NC(=O)[C@H](CCCCN)NC(=O)CN(C)C(=O)[C@H](C(C)C)NC1=O [compound 347, Ac-hLeu-Y-C-V-Sar-K-ThpA-D-V-Y-C-5FW-F-hydroxyVal-dLys(DOTA)-COOH] (Ac-[hLeu]YCV[Sar]K[Ala(4-THP)]DVYC[Trp(5-F)]F[Val(3-OH)][dK](DOTA)-OH; disulfide 3-11)

From US20250296959A1, “B7-H3 TARGETING PEPTIDES AND CONSTRUCTS THEREOF” (Mariana Oncology Inc., priority 2024, published 2025)
